Reference: ChEMBL document CHEMBL5233281, “Design, synthesis and biological evaluation of novel 1,3,4,9-tetrahydropyrano[3,4-b]indoles as potential treatment of triple negative breast cancer by suppressing PI3K/AKT/mTOR pathway” (Bioorg Med Chem, 2021)

Columns and labels:
A549 = assay: Antiproliferative activity against human A549 cells assessed as inhibition of cell growth incubated for 72 hrs by CCK8 assay; type: functional, cell-based; conditions: A549, 72 h
BGC-823 = assay: Antiproliferative activity against human BGC-823 cells assessed as inhibition of cell growth incubated for 72 hrs by CCK8 assay; type: functional, cell-based; conditions: BGC-823, 72 h
PC-3 = assay: Antiproliferative activity against human PC-3 cells assessed as inhibition of cell growth incubated for 72 hrs by CCK8 assay; type: functional, cell-based; conditions: PC-3, 72 h
MCF7 = assay: Antiproliferative activity against human MCF7 cells assessed as inhibition of cell growth incubated for 72 hrs by CCK8 assay; type: functional, cell-based; conditions: MCF7, 72 h
MDA-MB-231 [1] = assay: Antiproliferative activity against human MDA-MB-231 cells assessed as inhibition of cell growth incubated for 72 hrs by CCK8 assay; type: functional, cell-based; conditions: MDA-MB-231, 72 h
MDA-MB-231 [2] = assay: Antiproliferative activity against human MDA-MB-231 cells assessed as inhibition of cell growth incubated for 72 hrs by SRB assay; type: functional, cell-based; conditions: MDA-MB-231, 72 h
[3] = Antiproliferative activity against human MCF-10A cells assessed as inhibition of cell growth incubated for 72 hrs by CCK8 assay; type: toxicity, cell-based
[4] = Selectivity index, ratio of IC50 for antiproliferative activity against human MCF-10A cells to IC50 for antiproliferative activity against human MDA-MB-231 cells; type: toxicity, cell-based; conditions: MCF-10A cells and MDA-MB-231 cells, read-out: Ratio IC50

Row | IC50 (A549) [µM] | IC50 (BGC-823) [µM] | IC50 (PC-3) [µM] | IC50 (MCF7) [µM] | IC50 (MDA-MB-231 [1]) [µM] | IC50 (MDA-MB-231 [2]) [µM] | Structure (SMILES) | IC50 at 72 h [3] [µM] | selectivity ratio [4]
1 |  |  |  |  |  | 6.99 | C[C@@H](Nc1cc(F)cc(F)c1)c1cc(C(=O)N(C)C)cc2c(=O)cc(N3CCOCC3)oc12 [AZD-8186] |  | 
2 | > 20 | > 20 | > 20 | 19.4 | > 20 |  | CC(=O)Oc1ccc(C2OCCc3c2[nH]c2ccccc32)cc1 (stereo unspecified) |  | 
3 | 17.6 | 12.3 | 12.8 | 15.8 | 13.1 |  | Clc1ccc(C2OCCc3c2[nH]c2ccccc32)cc1 (stereo unspecified) | 35.4 | 
4 | > 20 | > 20 | 18.2 | > 20 | > 20 |  | Cc1ccc(C2OCCc3c2[nH]c2ccccc32)cc1 (stereo unspecified) |  | 
5 | 19 | 18.3 | 13.9 | 18.5 | 13.5 |  | COc1cc(C2OCCc3c2[nH]c2ccccc32)cc(OC)c1OC (stereo unspecified) | 46.2 | 
6 | 17.5 | 18.1 | 16.7 | 12.7 | 11.6 |  | COc1ccc2cc(C3OCCc4c3n(C)c3ccccc43)ccc2c1 (stereo unspecified) | 30 | 3.35
7 | > 20 | > 20 | 19.7 | > 20 | > 20 |  | COc1ccc(C2OCCc3c2[nH]c2ccccc32)c(OC)c1OC (stereo unspecified) |  | 
8 | > 20 | > 20 | > 20 | > 20 | 16.5 |  | COc1ccc(C2OCCc3c2[nH]c2ccc(Br)cc32)cc1 (stereo unspecified) | 45.1 | 2.42

Continued, compound first:

Row | Structure (SMILES) | IC50 (A549) [µM] | IC50 (BGC-823) [µM] | IC50 (PC-3) [µM] | IC50 (MCF7) [µM] | IC50 (MDA-MB-231 [1]) [µM] | IC50 (MDA-MB-231 [2]) [µM] | IC50 at 72 h [3] [µM] | selectivity ratio [4]
9 | Cc1cccc(C2OCCc3c2[nH]c2ccccc32)c1 (stereo unspecified) | > 20 | > 20 | > 20 | > 20 | > 20 |  |  | 
10 | c1ccc2cc(C3OCCc4c3[nH]c3ccccc43)ccc2c1 (stereo unspecified) | > 20 | 17.8 | > 20 | > 20 | > 20 |  |  | 
11 | c1ccc(-c2ccc(C3OCCc4c3[nH]c3ccccc43)cc2)cc1 (stereo unspecified) | > 20 | > 20 | > 20 | > 20 | > 20 |  |  | 
12 | COc1ccc2cc(C3OCCc4c3n(Cc3ccccc3)c3ccccc43)ccc2c1 (stereo unspecified) | 19.9 | 19.7 | 14.8 | 16.5 | 15.8 |  | 41.4 | 2.63
13 | COc1ccccc1C1OCCc2c1[nH]c1ccccc21 (stereo unspecified) | > 20 | > 20 | > 20 | > 20 | > 20 |  |  | 
14 | Fc1ccc(C2OCCc3c2[nH]c2ccccc32)cc1 (stereo unspecified) | 19.4 | 14.7 | 6.21 | 7.05 | 6.8 |  | 32 | 6.8
15 | COc1ccc(C2OCCc3c2[nH]c2ccccc32)cc1OC (stereo unspecified) | > 20 | > 20 | 18.1 | > 20 | 17.8 |  | 40.4 | 2.27
16 | COc1ccc(C2OCCc3c2[nH]c2ccc(OC)cc32)cc1 (stereo unspecified) | > 20 | > 20 | > 20 | > 20 | 16.9 |  | 51.9 | 3.07
17 | COc1cccc(C2OCCc3c2[nH]c2ccccc32)c1 (stereo unspecified) | > 20 | > 20 | > 20 | 18 | 15.3 |  | 40.8 | 2.67
18 | COc1ccc(C2OCCc3c2[nH]c2ccccc32)cc1 (stereo unspecified) | 18.9 | 15.6 | 17.8 | 16.6 | 10.8 |  | 35.9 | 3.32
19 | c1ccc(C2OCCc3c2[nH]c2ccccc32)cc1 (stereo unspecified) | > 20 | > 20 | > 20 | > 20 | > 20 |  |  | 
20 | COc1ccc2cc(C3OCCc4c3[nH]c3ccccc43)ccc2c1 (stereo unspecified) | 15.4 | 13.2 | 12.6 | 12.2 | 4.59 |  | 21.9 | 4.77
